From US11261232B2, “TNFRSF14 / HVEM proteins and methods of use thereof” (MEMORIAL SLOAN KETTERING CANCER CENTER, priority 2015, dated 2022)

B1: sTNFRSF14: Pro37-Val202 soluble HVEM ectodomain polypeptide of SEQ ID NO. 6 (protein, listed as Homo sapiens)
chain: PALPSCKEDEYPVGSECCPKCSPGYRVKEACGELTGTVCEPCPPGTYIAHLNGLSKCLQCQMCDPAMGLRASRNCSRTENAVCGCSPGHFCIVQDGDHCAACRAYATSSPGQRVQKGGTESQDTLCQNCPPGTFSPNGTLEECQHQTKCSWLVTKAGAGTSSSHWV

Experiments:
[1] = tested on: mouse lymphoma lines (BCL1 and Myc/Bc12); test: qRT-PCR of TNF family cytokines in mouse lymphoma lines; assay type: cell-based; conditions: solHVEM 10 μg/ml; BCL1 and Myc/Bcl2 lines; 24 hrs
Text: FIG. 5A-I. Abnormal activation of the lymphoid stroma in B-cell lymphomas. FIG. 5A, Immunohistofluorescence staining for the FDC marker CD21/35 and the FRC marker Collagen 1 on control lymphomas (vector) and HVEM knockdown lymphomas (shHVEM) (n=3 for each, scale bars=100 μm); FIG. 5B and FIG. 5C, Systematic quantification of CD21/35 (left) and collagen I (right) staining in control (Vector) and HVEM deficient (shHVEM) lymphomas based on 12 areas in the T-cell zone and 30 areas in the B-cell zone per mice (cumulative number for 3 mice), respectively; ** p<0.01; *** p<0.001 by parametric t-test; FIG. 5D and FIG. 5E, CXCL13 (FIG. 5D) and CCL19 (FIG. 5E) expression by qRT-PCR on control (vector) and HVEM knockdown (shHVEM) lymphomas (mean of four replicates, error bars indicate standard deviation, * p<0.01); FIG. 5F, qRT-PCR measurement of the LTa, LTb, and TNFa mRNA expression in B cells isolated from the spleens of vector and shHVEM mice (n=3); FIG. 5G-I, qRT-PCR measurement of TNFa (FIG. 5G), LTa (FIG. 5H), and LTb (FIG. 5I) in B cell line BCL1 after 24 hrs of treatment with solHVEM (10 μg/ml).
FIG. 12A-F. Analysis of the lymphoid stroma in B cell lymphomas. FIG. 12A, Immunohistofluorescence staining of CD20pos B cells, Transglutaminasepos FRCs, and CD21Lpos FDCs in reactive lymph nodes and two separate human follicular lymphoma tissue specimens; FIG. 12B, Flowchart of the image processing for FRC density (Collagen I); briefly, images were thresholded and transformed to binaries images, then a watershed algorithm was applied and number of polygons evaluated and analyzed by ImageJ software; FIG. 12C, Number of polygons indicates FRC density in control lymphomas (vector) and HVEM knockdown lymphomas showing no difference in FRC contribution. 40 areas were selected in the T cell zone and analyzed per mice (n=3 per each group); FIG. 12D-F, qRT-PCR measurement of TNFa (FIG. 12D), LTa (FIG. 12E), and LTb (FIG. 12F) in mouse B-cell line EuMyc-Bc12. […]

[2] = tested on: MYC/BCL2 double positive murine lymphoma cells; test: In vivo treatment of engrafted myc-bcl2 murine lymphomas by intratumoral injection; parameters: species or system J:Nu nude mice
Protocol: FIG. 7A-H. The solHVEM (either Leu39-Va1202 or Pro37-Va1202) protein restores tumor suppressive effects of HVEM.
FIG. 20. sTNFRSF14 inhibits tumor growth in vivo. Xenograft myc-bc12 lymphomas were grown in the flanks of mice. When the tumors reached a volume of approximately 0.5 cm^3 mice were treated every other day by intra-tumoral injection in the flanks with 20 ug/ml of sTNFRSF14diluted in PBS. The control (vehicle) animals were treated with PBS. Tumors were weighed and volumes were measured twice weekly.
FIG. 21. sTNFRSF14 decreases lymphoma growth in a xenograft model. 5 million myc-Bcl2 cells were mixed with Matrigel and injected subcutaneously into the flanks of mice J:Nu Nude (Foxn1 nu/Foxn1 nu) mice. Animals were sacrificed according to IUCAC protocols. Upon sacrifice tumors were weighed and measured.
FIG. 22. Exogenous administration of sTNFRSF14 suppresses mouse lymphoma xenografts. Animals were sacrificed on day day 11 and the xenografted tumors were excised from the flanks of the mice. The tumors from each flank—treated (sTNFRSF14) and untreated (vehicle) were weighed. Bars represent the average of n=4 mice.
FIG. 24. Immunohistochemical analysis of xenograft tumors. Pathological analysis of sTNFRSF14 treated and vehicle treated mouse lymphomas. Tumors were excised from the flanks of the animals and fixed in 4% paraformaldehyde overnight. The tumors were sectioned and stained via IHC for particular tumor markers. Representative staining for HE, TUNEL, and Ki67 is shown.
Building on these findings, experiments were performed to test whether solHVEM would have any single agent activity against lymphomas. First, the expression of the BTLA receptor was characterized across a panel of human and mouse lymphoma (mostly DLBCL) cell lines. […] Next, experiments were performed to test if solHVEM had any effect on established BTLA^hi lymphomas in vivo. Briefly, aggressive MYC/BCL2 double positive murine lymphoma cells that express BTLA (BTLA^hi) were transplanted into the flanks of J:Nu nude mice and mice were treated with 20 μg of solHVEM or vehicle (PBS) every three days for a total four times once the engrafted tumors reached a volume of ˜50 mm3. […] Similar results were obtained both in vitro and in vivo with a different soluble HVEM molecule consisting of the extracellular region from amino acids Pro37 to Va1202 (SEQ ID NO. 6).
Transplant and treatment studies were generated as previously described (Schatz et al., 2011). In summary, subcutaneous injection of one million myc-bcl2 mouse lymphoma cells combined with Matrigel (BD) in the right and left flanks of mice J:Nu Nude (Foxn1 nu/Foxn1 nu). Once tumors reached 75-mm3 mice were treated every three days by intra tumor injection with 20 m of sHVEM diluted in PBS (right flank) or with vehicle control (left flank). Tumor sizes were measured and recorded every three days. Tumors were weighed after the animals were sacrificed and tumors excised.
To study the effects of the sTNFRSF14 polypeptide in vivo, five (5) million myc-bc12 cells were injected into both the right and left flanks of nude mice. Upon formation of palpable tumors treatment was commenced. The treatment comprise injecting mice intra-tumorally with either 20 ug of sTNFRSF14 on the right flank or vehicle on the left flank.

[3] = 20 μg intratumoral every three days
[4] = compared to vehicle-treated tumors

Molecule | expression of LTa [1] | expression of LTb [1] | expression of TNFa [1] | ERK inhibition in tumors by immunoblot [2, 3] | apoptosis by TUNEL stain in tumors [2, 3] | tumor growth ([2]; 20 μg intratumoral every three days, four times, n=4, p<0.01) | tumor growth ([2]; 20 ug intra-tumoral, right flank, vehicle left flank) | tumor weight ([2]; 11 days after treatment initiation, average, 20 ug intra-tumoral) | TUNEL staining in tumors [2, 4] | levels of phosphorylated ERK in tumors [2, 4] | proliferation marker Ki67 in tumors [2, 4]
solHVEM: Leu39-Val202 soluble HVEM ectodomain polypeptide of SEQ ID NO. 8 | readily decreased | readily decreased | did not reduce | ERK inhibition | abundant apoptosis | prevented any further tumor growth |  |  |  |  | 
B1 |  |  |  |  |  |  | near complete growth delay | 0.75 grams | higher levels | reduced levels | decrease
